This assay has as its system MRSA ocular infection. Description: Ocular infection model, tedizolid phosphate/lysozyme. It counts as in vivo, C57BL/6 mice. The source says: 20) Ocular infection model. According to the reported method [Zhang, Z et al., Curt. Protoc, mouse Bot 7, 55-63 (2017)], 40 C57BL/6, male mice ([…]) were used to evaluate the combination effect in the ocular infection model. Specifically, all mice were divided into 5 groups (4 infected groups and 1 uninfected group, 8 mice per group). Among than, 32 mice in infected groups were infected by slowly inoculating about 2.5×10^7 CFUs of mid-log phase MRSA into each ocular surface. To collect these mid-tog phase ARA, a colony of MRSA cultured in LB-agar plate was firstly picked up and inoculated into fresh LB medium for overnight incubation at 37° C. Then, the overnight culture was diluted (1:300) into fresh LB medium for continuous culture until bacterial OD600 was about 0.6. […] Next, 2.5 μl of bacterial suspensions were slowly inoculated into each ocular surface of anesthetized C57/BL6 mouse on the side of surgical bed. […] After that, they were repeated from the air-anesthetizing room and monitored until they were fully awake, followed by retuned to their cages. […] Then, according to the standard protocol^28, 3 μl of tear fluid was gradient-diluted at 10-fold in 96-well plat to figure out the initial number of viable bacteria in tear fluid according to quantitative grown colony after overnight culture. […]

Take `Cn1nnc(-c2ccc(-c3ccc(N4C[C@H](COP(=O)(O)O)OC4=O)cc3F)cn2)n1` [tedizolid phosphate, Tedizolid Phosphate]: under “combination group compared with uninfected group”, the “expression level of SP-D in tear fluids” value is reported as 1.5 fold. Also, the “bacterial load in both tear fluids and eyeball homogenates” value (combination therapy (0.125 mg/ml tedizolid phosphate + 100 mg/ml lysozyme)) is 0.01 fold.

The values are drawn from patent US20250144187A1, “COMBINATION OF HYDROLASES AND ANTI-MICROORGANISM DRUGS AND USES THEREOF” (CENTRE FOR EYE AND VISION RESEARCH LIMITED, priority 2023, published 2025).
